Reference: PMC6234229, “The role of loops B and C in determining the potentiation of GABAA receptors by midazolam” (Pharmacology Research & Perspectives, 2018)
Several values for one entry are separate records, joined by “and”; a condition that tells them apart may be missing. Equal values may be shown once. Read-outs that look alike come from different tables or passages of the source.

Key:
[1] = biological target: T1, α6(R100H)β2γ2 GABAA receptor (Homo sapiens, UniProt P18507+P47870+Q16445, R119H); conditions: GABA Hill fit
T1 sequence (Q16445 20-453 R119H): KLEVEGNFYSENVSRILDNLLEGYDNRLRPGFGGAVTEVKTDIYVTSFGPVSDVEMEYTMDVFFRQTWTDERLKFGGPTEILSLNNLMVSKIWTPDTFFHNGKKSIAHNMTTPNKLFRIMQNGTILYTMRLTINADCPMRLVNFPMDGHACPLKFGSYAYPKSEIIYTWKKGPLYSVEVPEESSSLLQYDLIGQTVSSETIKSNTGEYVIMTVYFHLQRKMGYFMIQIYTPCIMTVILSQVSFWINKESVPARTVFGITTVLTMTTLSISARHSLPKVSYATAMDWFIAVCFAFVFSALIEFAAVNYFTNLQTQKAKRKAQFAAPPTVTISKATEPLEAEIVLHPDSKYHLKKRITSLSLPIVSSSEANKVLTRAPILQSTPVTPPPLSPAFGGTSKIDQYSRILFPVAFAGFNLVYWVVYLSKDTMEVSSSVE
T1 sequence (P47870 26-474 isoform P47870-1 limits assumed, stated change not applied): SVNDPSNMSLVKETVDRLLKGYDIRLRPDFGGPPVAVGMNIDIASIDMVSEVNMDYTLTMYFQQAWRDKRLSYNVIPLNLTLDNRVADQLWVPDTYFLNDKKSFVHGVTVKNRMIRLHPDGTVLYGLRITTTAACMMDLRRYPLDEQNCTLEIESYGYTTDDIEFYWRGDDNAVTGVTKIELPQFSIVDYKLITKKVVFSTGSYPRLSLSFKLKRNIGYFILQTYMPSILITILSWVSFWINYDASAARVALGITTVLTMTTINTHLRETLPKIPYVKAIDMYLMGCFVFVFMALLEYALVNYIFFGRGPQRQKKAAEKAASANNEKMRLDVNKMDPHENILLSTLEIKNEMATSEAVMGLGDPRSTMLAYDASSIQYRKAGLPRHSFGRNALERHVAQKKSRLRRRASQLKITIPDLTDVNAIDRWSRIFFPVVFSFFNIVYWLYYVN
T1 sequence (P18507 40-467 isoform P18507-1 limits assumed, stated change not applied): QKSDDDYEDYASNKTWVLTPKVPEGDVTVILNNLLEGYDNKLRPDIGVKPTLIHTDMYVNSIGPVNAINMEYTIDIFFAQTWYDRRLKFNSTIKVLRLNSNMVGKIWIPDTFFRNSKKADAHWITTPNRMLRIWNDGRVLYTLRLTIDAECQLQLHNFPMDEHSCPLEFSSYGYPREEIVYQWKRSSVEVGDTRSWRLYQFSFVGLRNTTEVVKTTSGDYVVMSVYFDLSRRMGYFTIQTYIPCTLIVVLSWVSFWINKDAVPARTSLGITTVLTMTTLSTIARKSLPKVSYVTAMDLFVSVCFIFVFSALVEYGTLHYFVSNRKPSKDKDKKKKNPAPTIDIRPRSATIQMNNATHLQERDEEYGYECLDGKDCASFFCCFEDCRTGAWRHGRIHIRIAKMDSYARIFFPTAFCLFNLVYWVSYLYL
From the text: (§1) Human (Homo sapiens) GABAA subunits (α1‐6, β2, γ2s) were subcloned into pcDNA3.1+ vectors with a cytomegalovirus (CMV) promoter. The hβ2 and hα3 sequences were humanized rat (Rattus norvegicus) cDNA with amino acid substitutions made to match the human protein sequence. The α1‐3, α5, β2, and γ2s subunits were a generous gift from Neil L. Harrison (Columbia University Medical Center, NY). The α4 subunit was obtained from GenScript (Piscataway, NJ), and the α6 subunit was a generous gift from Robert L. McDonald (Vanderbilt University, TN). […]
(§2) Human embryonic kidney cells containing the SV40 T‐antigen (HEK293T) were acquired from American Type Culture Collection (ATCC®, Manassas, VA), catalogue number, CRL3216. […] Experiments consisted of at least five cells recorded per day from at least two transfections across 3‐4 days to control for cell health and transfection efficiency. At least three cells expressing wild‐type receptors were recorded on days that mutant receptors were tested to provide a time‐matched expression control. […]
(§3) Extracellular solution contained 161 mM NaCl, 3 mM KCl, 1 mM MgCl2, 1.5 mM CaCl2, 10 mM HEPES, and 6 mM D‐glucose, adjusted to pH 7.4 with NaOH (320‐330 mOsm). […] Whole‐cell currents were recorded at ‐60 mV, filtered at 100 Hz and sampled at 200 Hz with a MultiClamp 700B amplifier (Molecular Devices, LLC) and DigiData 1322A (Molecular Devices, LLC) digitizer. […]

[2] = biological target: T2, α6(P161T)β2γ2 GABAA receptor (Homo sapiens, UniProt P18507+P47870+Q16445, P180T); conditions: GABA Hill fit
T2 sequence (Q16445 20-453 P180T): as the sequence (Q16445 20-453 R119H) above, with H100R, P161T counted along it
T2 sequence (P47870 26-474 isoform P47870-1 limits assumed, stated change not applied): as the sequence (P47870 26-474 isoform P47870-1 limits assumed, stated change not applied) above
T2 sequence (P18507 40-467 isoform P18507-1 limits assumed, stated change not applied): as the sequence (P18507 40-467 isoform P18507-1 limits assumed, stated change not applied) above
From the text: as §1, §2, §3

[3] = biological target: T1, α6(R100H)β2γ2 GABAA receptor; experiment: Midazolam potentiation of EC10 GABA currents, whole-cell patch clamp, HEK293T; format: cell-based; parameters: expressed in transfected cells; host or cells: HEK293T
From the text: (§4) Human (Homo sapiens) GABAA subunits (α1‐6, β2, γ2s) were subcloned into pcDNA3.1+ vectors with a cytomegalovirus (CMV) promoter. The hβ2 and hα3 sequences were humanized rat (Rattus norvegicus) cDNA with amino acid substitutions made to match the human protein sequence. The α1‐3, α5, β2, and γ2s subunits were a generous gift from Neil L. Harrison (Columbia University Medical Center, NY). The α4 subunit was obtained from GenScript (Piscataway, NJ), and the α6 subunit was a generous gift from Robert L. McDonald (Vanderbilt University, TN). All point mutations (listed in Figure 1C) were introduced using the QuikChange Lightening site‐directed mutagenesis kit (Agilent Technologies, Santa Clara, CA) according to the manufacturer's instructions and were confirmed by sequencing (Eurofins MWG Operon, Louisville, KY).
(§5) Human embryonic kidney cells containing the SV40 T‐antigen (HEK293T) were acquired from American Type Culture Collection (ATCC®, Manassas, VA), catalogue number, CRL3216. HEK293T cells were maintained at 37°C and 5% CO2 in Eagle Minimum Essential Medium (MEM) supplemented with 5% fetal bovine serum (Atlanta Biologicals Inc., Flowery Branch, GA), 40 μM L‐glutamine, 100 U/mL penicillin and 0.1 mM streptomycin. Cells were passaged regularly when they reached 70% confluency using trypsin. Cells were not passaged more than 22 times. New cells were revived from frozen stocks at passage 2‐4. Cells used for in vitro electrophysiology experiments were grown on poly‐D‐lysine‐coated glass coverslips (No.2, VWR, Radnor, PA) and transfected with X‐tremeGENE (Roche Diagnostics, Indianapolis, IN) with the desired receptor subunit cDNAs at a 1:1:1 ratio to express αxβ2γ2s receptors (2 μg total cDNA) and with 0.5 μg green fluorescent protein (GFP) as an expression marker. The γ2s incorporation into receptors was tested with zinc inhibition assays regularly.24 Patch clamp experiments were performed on cells at 24‐72 hours post‐transfection. All experiments were performed at 22°C. Experiments consisted of at least five cells recorded per day from at least two transfections across 3‐4 days to control for cell health and transfection efficiency. At least three cells expressing wild‐type receptors were recorded on days that mutant receptors were tested to provide a time‐matched expression control. All reagents were purchased from Sigma‐Aldrich (St. Louis, MO) unless otherwise stated.
(§6) Extracellular solution contained 161 mM NaCl, 3 mM KCl, 1 mM MgCl2, 1.5 mM CaCl2, 10 mM HEPES, and 6 mM D‐glucose, adjusted to pH 7.4 with NaOH (320‐330 mOsm). […] The perfusion system was controlled by protocols written in pClamp 9 (Molecular Devices, LLC., Sunnyvale, CA). Whole‐cell currents were recorded at ‐60 mV, filtered at 100 Hz and sampled at 200 Hz with a MultiClamp 700B amplifier (Molecular Devices, LLC) and DigiData 1322A (Molecular Devices, LLC) digitizer. […] Cells were recorded with the midazolam protocol no more than two times to avoid desensitization and incomplete washout or irreversible modulation.
(§7) Recordings were analyzed using MATLAB (Math Works, Inc., Natick, MA). […] The maximum peak current, EC50 and Hill coefficient were estimated for assays from each cell. When Hill parameters are estimated from whole‐cell recordings, the changes in the parameters across receptor conditions can be ascribed to the following changes in receptor physiology. Changes in maximum current can be due to changes in the single‐channel conductance or the rate of desensitization. Changes in cell surface receptor expression can cause minor changes in maximum current, but are unlikely to occur in the time course of our experimental protocol. […] More often minor changes in the Hill coefficient are attributed to the altered homogeneity in the receptor population expressed by the HEK293T cell. For example, a shallower Hill coefficient could be caused by a shift in the population of receptors from mostly αβγ receptors to a combination of both αβ and αβγ receptors.

[4] = biological target: T2, α6(P161T)β2γ2 GABAA receptor; experiment: as above; format: cell-based; parameters: expressed in transfected cells; host or cells: HEK293T; conditions: for Midazolam potentiation (%): α6(P161T)
From the text: as §4, §5, §6, §7

[5] = cited from earlier work
[6] = biological target: T3, α5(H105R)β2γ2 GABAA receptor (Homo sapiens, UniProt P18507+P31644+P47870, H136R); experiment: Midazolam potentiation of EC10 GABA currents, whole-cell patch clamp, HEK293T; format: cell-based
T3 construct: expressed in transfected cells; host or cells: HEK293T
T3 sequence (P31644 32-462 H136R): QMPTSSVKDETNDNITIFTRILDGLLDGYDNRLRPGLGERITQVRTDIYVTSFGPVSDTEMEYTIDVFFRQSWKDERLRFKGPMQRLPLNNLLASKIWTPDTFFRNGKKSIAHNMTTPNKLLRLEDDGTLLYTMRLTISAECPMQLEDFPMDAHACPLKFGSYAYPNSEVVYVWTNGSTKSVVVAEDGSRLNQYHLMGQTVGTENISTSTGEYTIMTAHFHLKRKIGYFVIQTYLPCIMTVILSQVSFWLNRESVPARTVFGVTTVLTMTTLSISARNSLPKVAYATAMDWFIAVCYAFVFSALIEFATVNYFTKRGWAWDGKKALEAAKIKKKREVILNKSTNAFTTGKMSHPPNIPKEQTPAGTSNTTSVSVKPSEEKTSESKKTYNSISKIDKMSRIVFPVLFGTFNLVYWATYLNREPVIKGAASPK
T3 sequence (P47870 26-474 isoform P47870-1 limits assumed, stated change not applied): as the sequence (P47870 26-474 isoform P47870-1 limits assumed, stated change not applied) above
T3 sequence (P18507 40-467 isoform P18507-1 limits assumed, stated change not applied): as the sequence (P18507 40-467 isoform P18507-1 limits assumed, stated change not applied) above
From the text: as §4, §5, §6, §7

α3β2γ2 GABAA receptor = biological target: T4, α3β2γ2 GABAA receptor (Homo sapiens, UniProt P18507+P34903+P47870); experiment: as above; format: cell-based
T4 construct: expressed in transfected cells; host or cells: HEK293T
T4 sequence (P34903 29-492): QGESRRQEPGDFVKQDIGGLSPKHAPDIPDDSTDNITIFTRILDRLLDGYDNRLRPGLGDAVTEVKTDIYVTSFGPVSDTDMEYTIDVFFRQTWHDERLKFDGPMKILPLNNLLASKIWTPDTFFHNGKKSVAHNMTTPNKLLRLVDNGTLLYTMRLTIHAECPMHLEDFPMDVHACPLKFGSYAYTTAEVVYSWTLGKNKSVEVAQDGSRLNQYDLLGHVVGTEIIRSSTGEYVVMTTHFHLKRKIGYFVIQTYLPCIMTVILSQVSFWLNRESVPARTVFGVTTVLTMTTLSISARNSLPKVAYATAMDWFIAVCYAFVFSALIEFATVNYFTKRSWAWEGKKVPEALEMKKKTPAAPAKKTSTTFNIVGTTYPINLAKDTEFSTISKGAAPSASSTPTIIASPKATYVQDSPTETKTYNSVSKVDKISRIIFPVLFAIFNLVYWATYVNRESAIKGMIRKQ
T4 sequence (P47870 25-512 limits assumed): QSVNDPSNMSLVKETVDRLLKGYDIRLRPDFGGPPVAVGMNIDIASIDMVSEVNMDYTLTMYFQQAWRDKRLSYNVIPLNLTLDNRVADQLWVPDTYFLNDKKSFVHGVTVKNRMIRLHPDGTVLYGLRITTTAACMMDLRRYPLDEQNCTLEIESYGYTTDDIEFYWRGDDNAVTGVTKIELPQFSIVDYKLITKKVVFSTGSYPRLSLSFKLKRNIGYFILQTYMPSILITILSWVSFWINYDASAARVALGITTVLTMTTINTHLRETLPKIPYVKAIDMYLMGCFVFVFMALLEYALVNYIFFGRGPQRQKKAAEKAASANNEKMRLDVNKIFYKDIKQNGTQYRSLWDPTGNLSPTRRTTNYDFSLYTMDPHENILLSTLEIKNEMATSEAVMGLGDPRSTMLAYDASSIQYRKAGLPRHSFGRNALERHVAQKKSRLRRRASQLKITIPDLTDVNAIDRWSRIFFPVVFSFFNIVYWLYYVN
T4 sequence (P18507 40-467 isoform P18507-1 limits assumed): as the sequence (P18507 40-467 isoform P18507-1 limits assumed, stated change not applied) above
From the text: as §4, §5, §6, §7

[7] = biological target: T5, α4(R100H)β2γ2 GABAA receptor (Homo sapiens, UniProt P18507+P47870+P48169, R135H); experiment: as above; format: cell-based
T5 construct: expressed in transfected cells; host or cells: HEK293T
T5 sequence (P48169 36-554 R135H): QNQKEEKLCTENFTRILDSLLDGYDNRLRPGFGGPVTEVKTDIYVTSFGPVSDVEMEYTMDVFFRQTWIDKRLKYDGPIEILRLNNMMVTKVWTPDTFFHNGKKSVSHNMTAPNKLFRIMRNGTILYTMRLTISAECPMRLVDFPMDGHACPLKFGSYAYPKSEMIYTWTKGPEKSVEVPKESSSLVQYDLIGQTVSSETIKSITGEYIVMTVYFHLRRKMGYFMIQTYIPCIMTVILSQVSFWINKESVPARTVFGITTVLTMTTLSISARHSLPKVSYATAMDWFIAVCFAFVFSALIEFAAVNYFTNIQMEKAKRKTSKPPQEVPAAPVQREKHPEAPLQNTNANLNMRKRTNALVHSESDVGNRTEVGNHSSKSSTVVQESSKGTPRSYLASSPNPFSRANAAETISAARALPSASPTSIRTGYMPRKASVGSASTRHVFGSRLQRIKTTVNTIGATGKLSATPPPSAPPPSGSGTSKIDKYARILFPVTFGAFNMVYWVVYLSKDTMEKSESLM
T5 sequence (P47870 26-474 isoform P47870-1 limits assumed, stated change not applied): as the sequence (P47870 26-474 isoform P47870-1 limits assumed, stated change not applied) above
T5 sequence (P18507 40-467 isoform P18507-1 limits assumed, stated change not applied): as the sequence (P18507 40-467 isoform P18507-1 limits assumed, stated change not applied) above
From the text: as §4, §5, §6, §7

SMILES: NCCCC(=O)O [GABA, γ‐aminobutyric acid]
- Max Current (pA) [1]: -2902 ± 349.5 pA
- Max Current (pA) [2]: -3540 ± 290.2 pA

SMILES: Cc1ncc2n1-c1ccc(Cl)cc1C(c1ccccc1F)=NC2 [midazolam]
- EC50 [3]: 41.9 ± 6.02 nM
- Midazolam potentiation (%) ([3]; 10 nM MDZ + EC10 GABA, α6(R100H)): 14.39 ± 8.03%
- Midazolam potentiation (%) ([3]; 50 nM MDZ + EC10 GABA, α6(R100H)): 45.91 ± 12.95%
- Midazolam potentiation (%) ([3]; 100 nM MDZ + EC10 GABA, α6(R100H)): 71.31 ± 17.31%
- Midazolam potentiation (%) ([3]; 500 nM MDZ + EC10 GABA, α6(R100H)): 85.96 ± 19.92%
- Midazolam potentiation (%) ([3]; 1000 nM MDZ + EC10 GABA, α6(R100H)): 79.13 ± 19.87%
- Max potentiation (%) ([3]; α6(R100H), Hill fit, midazolam 10-1000 nM + EC10 GABA): 93.27 ± 22.84%
- Hill coefficient ([3]; α6(R100H), midazolam Hill fit): 2.310 ± 0.56
- Midazolam potentiation (%) ([4]; 10 nM MDZ + EC10 GABA): 7.52 ± 3.56%
- Midazolam potentiation (%) ([4]; 50 nM MDZ + EC10 GABA): 13.89 ± 3.99%
- Midazolam potentiation (%) ([4]; 100 nM MDZ + EC10 GABA): 24.46 ± 3.86%
- Midazolam potentiation (%) ([4]; 500 nM MDZ + EC10 GABA): 17.25 ± 3.52%
- Midazolam potentiation (%) ([4]; 1000 nM MDZ + EC10 GABA): 16.98 ± 4.08%
- responsiveness to midazolam potentiation ([4]; α6(P161T)β2γ2): failed to confer midazolam responsiveness
- therapeutically relevant range of midazolam measured from plasma ([5]; anesthetized state): 350 ng/mL and 966 nM
- therapeutically relevant range of midazolam measured from plasma ([5]; postoperative drowsiness): 75 ng/mL and 207 nM
- responsiveness to midazolam potentiation [6]: abolished the ability of receptors to respond to midazolam potentiation
- Midazolam potentiation (%) ([6]; 10 nM MDZ + EC10 GABA): 8.59 ± 4.39%
- Midazolam potentiation (%) ([6]; 50 nM MDZ + EC10 GABA): 7.73 ± 4.67%
- Midazolam potentiation (%) ([6]; 100 nM MDZ + EC10 GABA): 8.00 ± 4.85%
- Midazolam potentiation (%) ([6]; 500 nM MDZ + EC10 GABA): 5.65 ± 3.99%
- Midazolam potentiation (%) ([6]; 1000 nM MDZ + EC10 GABA): 8.17 ± 4.66%
- Midazolam potentiation (%) (α3β2γ2 GABAA receptor; 10 nM MDZ + EC10 GABA): 37.98 ± 5.40%
- Midazolam potentiation (%) (α3β2γ2 GABAA receptor; 50 nM MDZ + EC10 GABA): 132.92 ± 12.09%
- Midazolam potentiation (%) (α3β2γ2 GABAA receptor; 100 nM MDZ + EC10 GABA): 221.10 ± 19.12%
- Midazolam potentiation (%) (α3β2γ2 GABAA receptor; 500 nM MDZ + EC10 GABA): 279.18 ± 24.71%
- Midazolam potentiation (%) (α3β2γ2 GABAA receptor; 1000 nM MDZ + EC10 GABA): 281.17 ± 24.73%
- EC50 (α3β2γ2 GABAA receptor; EC50 (nM), midazolam potentiation of EC10 GABA): 46.4 nM
- Max potentiation (%) (α3β2γ2 GABAA receptor; Hill fit, midazolam 10-1000 nM + EC10 GABA): 267.8 ± 20.3%
- Hill coefficient (α3β2γ2 GABAA receptor; midazolam Hill fit): 1.503 ± 0.117
- EC50 [7]: 74 ± 3.44 nM
- Midazolam potentiation (%) ([7]; 10 nM MDZ + EC10 GABA, α4(R100H)): 26.12 ± 4.95%
- Midazolam potentiation (%) ([7]; 50 nM MDZ + EC10 GABA, α4(R100H)): 54.65 ± 8.66%
- Midazolam potentiation (%) ([7]; 100 nM MDZ + EC10 GABA, α4(R100H)): 87.48 ± 13.68%
- Midazolam potentiation (%) ([7]; 500 nM MDZ + EC10 GABA, α4(R100H)): 117.13%
- Midazolam potentiation (%) ([7]; 1000 nM MDZ + EC10 GABA, α4(R100H)): 125.77%
- Max potentiation (%) ([7]; α4(R100H), Hill fit, midazolam 10-1000 nM + EC10 GABA): 113.8 ± 21.6%
- Hill coefficient ([7]; α4(R100H), midazolam Hill fit): 1.187 ± 0.150
